US6713265B1 (Synaptic Pharmaceutical Corporation, priority 1999, dated 2004)

Assays:
human Y4 receptor = biological target: T1, human Y4 receptor (Homo sapiens, UniProt P50391); experiment: ^125I-PYY binding to membranes, cloned human Y4 receptor; settings: read-out: Binding Affinity Ki vs. ^125I-PYY, Human Receptor Y4; Table 14; stably transfected LM(tk-) cells
T1 construct: expressed in transfected cells; host or cells: COS-7 (transient)

α2b = biological target: T2, α2b (Homo sapiens, UniProt P18089); experiment: Binding at cloned human α2b adrenergic receptor
T2 sequence (P18089 1-450): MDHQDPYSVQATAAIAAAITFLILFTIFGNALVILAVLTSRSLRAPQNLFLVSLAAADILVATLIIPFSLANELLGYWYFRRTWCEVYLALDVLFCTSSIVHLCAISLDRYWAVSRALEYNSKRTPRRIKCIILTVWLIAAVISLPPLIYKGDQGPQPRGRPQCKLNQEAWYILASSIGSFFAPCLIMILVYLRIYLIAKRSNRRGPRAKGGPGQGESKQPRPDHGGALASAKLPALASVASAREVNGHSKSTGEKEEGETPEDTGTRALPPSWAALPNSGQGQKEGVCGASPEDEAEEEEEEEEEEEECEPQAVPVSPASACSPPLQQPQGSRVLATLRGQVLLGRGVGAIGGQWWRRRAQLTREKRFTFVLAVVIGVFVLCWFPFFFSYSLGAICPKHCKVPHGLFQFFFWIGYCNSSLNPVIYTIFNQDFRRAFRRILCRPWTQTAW

human Y5 receptor [1] = biological target: T3, human Y5 receptor (Homo sapiens, UniProt Q15761); experiment: Radioimmunoassay of cAMP, cells stably expressing human Y5 receptor; type: cell-based; design: Ki Values, Human Y5; apparent Kd; pKd; The isolated clone (CG-19) turned out to contain a full length cDNA; The longest open reading frame encodes a 455 amino acid protein; settings: block of NPY-induced inhibition of cAMP accumulation, forskolin-stimulated LM(tk-) cells, human Y5
T3 sequence (Q15761 1-445): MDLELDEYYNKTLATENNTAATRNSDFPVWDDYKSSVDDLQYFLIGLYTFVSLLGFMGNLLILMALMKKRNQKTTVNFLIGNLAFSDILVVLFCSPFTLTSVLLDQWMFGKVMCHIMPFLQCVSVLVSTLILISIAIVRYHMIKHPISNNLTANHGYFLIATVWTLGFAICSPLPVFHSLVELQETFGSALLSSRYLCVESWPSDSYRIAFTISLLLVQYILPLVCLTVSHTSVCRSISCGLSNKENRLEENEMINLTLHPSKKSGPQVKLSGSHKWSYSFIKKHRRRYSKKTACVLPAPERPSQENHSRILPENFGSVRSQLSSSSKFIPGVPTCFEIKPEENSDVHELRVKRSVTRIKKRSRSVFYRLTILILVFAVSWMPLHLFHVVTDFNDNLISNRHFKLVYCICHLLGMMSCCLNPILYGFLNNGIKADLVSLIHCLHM
Protocol: LM(tk-) cells stably transfected with the human Y5 receptor were routinely converted from an adherent monolayer to a viable suspension. […] The cell suspension was maintained in a shaking incubator at 37° C., 5% CO2 for 24 hours. […] Alternatively, cells may be returned to adherent cell culture in complete DMEM by distribution into 96-well microtiter plates coated with poly-D-lysine (0.01 mg/ml) followed by incubation at 37° C., 5% CO2 for 24 hours.
The maximum inhibition of cAMP accumulation (Emax) and the concentration producing a half-maximal effect (EC50) were determined by nonlinear regression analysis according to a 4 parameter logistic equation.
The ability of the compounds to antagonize the Y-type receptors is reported as the Kb. […] The results shown are representative of at least three independent experiments.

α2a = biological target: T4, α2a (Homo sapiens, UniProt P08913); experiment: Binding at cloned human α2a adrenergic receptor
T4 sequence (P08913 1-465): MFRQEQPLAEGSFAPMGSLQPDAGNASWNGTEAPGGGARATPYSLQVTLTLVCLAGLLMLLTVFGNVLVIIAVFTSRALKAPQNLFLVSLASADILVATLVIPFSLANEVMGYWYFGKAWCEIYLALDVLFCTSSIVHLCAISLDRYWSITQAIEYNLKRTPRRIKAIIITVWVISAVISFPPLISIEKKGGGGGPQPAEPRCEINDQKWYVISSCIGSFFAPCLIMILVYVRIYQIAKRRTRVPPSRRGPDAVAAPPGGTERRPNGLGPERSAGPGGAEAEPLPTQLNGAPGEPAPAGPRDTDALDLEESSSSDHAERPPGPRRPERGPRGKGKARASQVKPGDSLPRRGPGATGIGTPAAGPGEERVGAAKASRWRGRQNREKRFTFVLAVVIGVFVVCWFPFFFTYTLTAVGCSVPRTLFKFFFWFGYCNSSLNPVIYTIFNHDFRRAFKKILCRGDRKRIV

α1d = biological target: T5, α1d (Homo sapiens, UniProt P25100); experiment: Binding at cloned human α1d adrenergic receptor
T5 sequence (P25100 1-572): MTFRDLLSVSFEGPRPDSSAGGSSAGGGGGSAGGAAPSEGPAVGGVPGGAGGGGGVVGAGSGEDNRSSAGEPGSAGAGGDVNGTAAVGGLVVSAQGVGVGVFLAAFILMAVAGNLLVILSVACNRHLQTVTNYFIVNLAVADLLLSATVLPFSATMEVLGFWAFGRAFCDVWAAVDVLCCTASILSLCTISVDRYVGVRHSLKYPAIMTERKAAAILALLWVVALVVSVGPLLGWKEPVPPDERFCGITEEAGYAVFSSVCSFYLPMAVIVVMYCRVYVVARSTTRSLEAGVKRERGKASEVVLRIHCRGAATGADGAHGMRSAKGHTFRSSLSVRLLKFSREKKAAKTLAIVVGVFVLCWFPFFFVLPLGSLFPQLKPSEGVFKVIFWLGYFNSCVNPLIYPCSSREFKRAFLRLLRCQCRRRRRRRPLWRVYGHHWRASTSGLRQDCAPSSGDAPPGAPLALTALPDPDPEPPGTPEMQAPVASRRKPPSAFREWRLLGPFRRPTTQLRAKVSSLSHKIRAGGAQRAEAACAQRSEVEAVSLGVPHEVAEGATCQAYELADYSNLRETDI

human Y5 receptor [2] = biological target: T3, human Y5 receptor; experiment: Radioligand binding to membranes of cells expressing cloned human Y5 receptor; design: Ki Values, Human Y5; apparent Kd; pKd; The isolated clone (CG-19) turned out to contain a full length cDNA; The longest open reading frame encodes a 455 amino acid protein; settings: read-out: Binding Affinity Ki vs. ^125I-PYY, Human Receptor Y5; Table 14; stably transfected LM(tk-) cells

T1 sequence (P50391 whole entry): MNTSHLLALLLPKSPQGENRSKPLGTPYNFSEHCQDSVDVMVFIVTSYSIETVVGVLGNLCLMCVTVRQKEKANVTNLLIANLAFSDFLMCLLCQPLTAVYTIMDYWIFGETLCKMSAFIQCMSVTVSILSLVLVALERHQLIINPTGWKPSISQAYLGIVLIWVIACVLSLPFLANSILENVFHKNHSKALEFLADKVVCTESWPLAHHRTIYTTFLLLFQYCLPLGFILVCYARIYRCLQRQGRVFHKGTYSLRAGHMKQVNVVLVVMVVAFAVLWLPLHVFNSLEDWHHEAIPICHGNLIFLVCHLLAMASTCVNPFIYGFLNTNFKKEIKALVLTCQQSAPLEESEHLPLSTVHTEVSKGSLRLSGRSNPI

| Compound | Ki (human Y4 receptor) [nM] | pKi α2b (α2b) | Kb (human Y5 receptor [1]) [nM] | pKi α2a (α2a) | pKi α1d (α1d) | Ki (human Y5 receptor [2]) [nM] |
| --- | --- | --- | --- | --- | --- | --- |
| Cl.O=S(=O)(NC[C@H]1CC[C@H](CNCC2CCc3ccccc3C2)CC1)c1cccc2ccccc12 (mixture of isomers) [Compound 19] | 11700 | 6.58 | 23 | 6.74 | 6.90 | 11 |
| Cl.O=[N+]([O-])c1ccccc1S(=O)(=O)NC[C@H]1CC[C@H](CNCC2CCc3ccccc3C2)CC1 (mixture of isomers) [Compound 20] | 20400 | 6.96 | 26 | 7.31 | 7.01 | 8.3 |
| Cl.Cl.Nc1ccccc1S(=O)(=O)NC[C@H]1CC[C@H](CNCC2CCc3ccccc3C2)CC1 (mixture of isomers) [Compound 22] | 27500 | 6.43 | 3 | 7.05 | 6.80 | 11 |
